Data: patent US20260297679A1, “ASSAYS FOR MONITORING INHIBITION OF RNA HELICASE DHX9” (ACCENT THERAPEUTICS, INC., priority 2023, published 2026)

How the values were obtained:
LS411N tumors [1] = assay: Intra-tumoral human circBRIP1 analysis, LS411N xenograft; type: in vivo, human xenograft in female BALB/c nude mice; conditions: 30, 100, 200 and 300 mg/kg BID oral, 21 days, 12 hours post last dose; FIG. 4A
Procedure: This study was conducted to evaluate pharmacodynamics (PD) and pharmacokinetics (PK) of intra-tumoral circular BRIP1 with efficacy of a DHX9 inhibitor (Compound 1, as shown in Table 1).
In vivo Efficacy Study: Experiments were performed in female BALB/c nude mice (GenPharmatech Co.). Animals were allowed to acclimate for 7 days before the study. The general health of the animals were evaluated by a veterinarian, and complete health checks were performed prior to the study. […] Animals were housed in polycarbonate cage which is the size of 300×180×150 mm^3 and in an environmentally monitored, well-ventilated room maintained at a temperature of (23±3° C.) and a relative humidity of 40% 70%. […]
(§1) The LS411N (ATCC; CRL-2159) tumor cell lines were maintained in vitro as monolayer in RPMI 1640 medium supplemented with 10% heat inactivated FBS, at 37° C. in an atmosphere of 5% CO2 in air. The tumor cells were sub-cultured, not exceeding 4-5 passages, and cells growing in an exponential growth phase were harvested and counted for tumor inoculation. […]
Data analysis was performed by using the QuantStudio Thermocycler software to determine threshold Ct values. ΔCt for circBRIP1 or linBRIP1 is calculated by normalizing the target gene Ct to the GAPDH housekeeping gene Ct for each sample. The inhibition activity is calculated by the following formula, whereas: […]

LS411N tumors [2] = assay: In vivo efficacy study, tumor volume, LS411N xenograft; set-up: species or system human xenograft in female BALB/c nude mice; conditions: BID oral, 21 days; FIG. 4B
Procedure: In vivo Efficacy Study: Experiments were performed in female BALB/c nude mice (GenPharmatech Co.). Animals were allowed to acclimate for 7 days before the study. The general health of the animals were evaluated by a veterinarian, and complete health checks were performed prior to the study. General procedures for animal care and housing were in accordance with the standard, Commission on Life Sciences, National Research Council, Standard Operating Procedures (SOPs) of Pharmaron, Inc. The mice were kept in laminar flow rooms at constant temperature and humidity with 3-5 mice in each cage. Animals were housed in polycarbonate cage which is the size of 300×180×150 mm^3 and in an environmentally monitored, well-ventilated room maintained at a temperature of (23±3° C.) and a relative humidity of 40% 70%. Fluorescent lighting provided illumination approximately 12 hours per day. […]
as §1
The measurement of tumor size was conducted with a caliper and recorded twice per week. […]

human PBMCs = assay: proliferation of human PBMCs (Cell-Titer Glo 2.0); type: cell-based; conditions: Compound 1 0.01 μM to 10 μM, 10 days; FIG. 8B
Procedure: Next, the proliferation of PMBCs was examined following treatment with DHX9 inhibitor using the following assay.
Human PBMCs were thawed from a frozen cryotube in a 37° C. water bath and transferred to a flask with medium X-Vivo 15 supplemented with 5% Fetal Bovine Serum (FBS), 1% PenStrep, and 1% Glutamax. Flasks were incubated at 37 C for 30 minutes. PBMCs were harvested from flask and counted. PBMCs were diluted in medium and added to 96 well plates at 100,000 PBMCs per well. A stimulus mixture containing IL-15 at 1 ng/well, IL-21 at 5 ng/well, and CD40L at 5 ng/well was added to each well. Test compounds were prepared in DMSO stock solution and serially diluted. Compound (0.1% final DMSO concentration) was added to each well. DMSO was used as a negative control (high control, HC) and staurosporine was used a positive control (low control, LC). Plates were incubated at 37 C for 0, 2, 4, 6, 8, 10 days. Every other day, medium was replenished with stimulus and diluted compounds.
At each CTG time point, plate was removed from incubator and Cell-Titer Glo 2.0 reagent was added to each well according to manufacturer's (Promega) protocol and detected on an Envision. The inhibition activity was calculated following the formula below:
% Inhibition=100×(ReadoutHC−ReadoutSample)/(ReadoutHC−ReadoutLC)
PBMCs were exposed to Compound 1 at concentrations ranging from 0.01 μM to 10 μM for 10 days. […]

Structure (SMILES): Cc1cccnc1-c1csc(C(=O)Nc2cc(Cl)cc(NS(C)(=O)=O)c2)c1 [Compound 1, N-(3-chloro-5-methanesulfonamidophenyl)-4-(3-methylpyridin-2-yl)thiophene-2-carboxamide]
- intra-tumoral circBRIP1 induction (LS411N tumors [1]): Dose-dependent intra-tumoral circBRIP1 induction was observed
- correlation of tumor volume to circBRIP1 induction (LS411N tumors [2]): correlate to circBRIP1 induction
- proliferation of PBMCs (human PBMCs): did not inhibit proliferation of PBMCs
